Values after ≈ are worked out from the molar mass of the structure shown. Where a name gives a salt, the structure may show the parent alone.
Assays:
Bel-7402 = assay: Antiproliferative activity against human Bel-7402 cells assessed as cell growth inhibition; type: functional, cell-based
MCF7 [1] = assay: Antiproliferative activity against human MCF7 cells assessed as cell growth inhibition; type: functional, cell-based
BGC-823 [2] = assay: Antiproliferative activity against human BGC-823 cells assessed as cell growth inhibition; type: functional, cell-based
A2780 = assay: Antiproliferative activity against human A2780 cells assessed as cell growth inhibition; type: functional, cell-based
KB [3] = assay: Antiproliferative activity against human KB cells assessed as cell growth inhibition; type: functional, cell-based
A549 [4] = assay: Cytotoxicity against human A549 cells assessed as cell growth inhibition; type: functional, cell-based
[5] = Antiproliferative activity against human HELF cells assessed as cell growth inhibition; type: toxicity, cell-based
KETR3 = assay: Antiproliferative activity against human KETR3 cells assessed as cell growth inhibition; type: functional, cell-based
HCT-8 [6] = assay: Antiproliferative activity against human HCT-8 cells assessed as cell growth inhibition; type: functional, cell-based
HeLa [7] = assay: Antiproliferative activity against human HeLa cells assessed as cell growth inhibition; type: functional, cell-based
HCT-116 [8] = assay: Cytotoxicity against human HCT-116 cells assessed as cell growth inhibition; type: functional, cell-based
DLD-1 = assay: Cytotoxicity against human DLD-1 cells assessed as cell growth inhibition; type: functional, cell-based
NCI-H460 = assay: Cytotoxicity against human NCI-H460 cells assessed as cell growth inhibition; type: functional, cell-based
QG-56 [9] = assay: Cytotoxicity against human QG-56 cells assessed as cell growth inhibition; type: functional, cell-based
HT-29 = assay: Cytotoxicity against human HT-29 cells assessed as cell growth inhibition; type: functional, cell-based
Melanoma cell line = assay: Cytotoxicity against human Melanoma cell line assessed as cell growth inhibition; type: functional, cell-based
QG-56 [10] = assay: Cytotoxicity against human QG-56 cells assessed as cell growth inhibition incubated for 4 days by Cell counting kit-8 assay; type: functional, cell-based; conditions: QG-56, 96 h
DU-145 [11] = assay: Cytotoxicity against human DU-145 cells assessed as cell growth inhibition incubated for 4 days by Cell counting kit-8 assay; type: functional, cell-based; conditions: DU-145, 96 h
P388 = assay: Cytotoxicity against mouse P388 cells assessed as cell growth inhibition; type: functional, cell-based
HCT-116 [12] = assay: Cytotoxicity against human HCT-116 cells assessed as cell growth inhibition incubated for 4 days by Cell counting kit-8 assay; type: functional, cell-based; conditions: HCT-116, 96 h
[13] = Cytotoxicity against mouse NIH3T3 cells assessed as cell growth inhibition at 50 ng/ml; type: toxicity, cell-based
HeLa [14] = assay: Antiproliferative activity against human HeLa cells assessed as cell growth inhibition by MTT assay; type: functional, cell-based
HCT-116 [15] = assay: Growth inhibition of human HCT-116 cells; type: functional
BGC-823 [16] = assay: Antiproliferative activity against human BGC-823 cells assessed as cell growth inhibition by MTT assay; type: functional, cell-based
A549 [17] = assay: Antiproliferative activity against human A549 cells assessed as cell growth inhibition by MTT assay; type: functional, cell-based
HCT-8 [18] = assay: Antiproliferative activity against human HCT-8 cells assessed as cell growth inhibition by MTT assay; type: functional, cell-based
QG-56 [19] = assay: Growth inhibition of human QG-56 cells; type: functional
KB [20] = assay: Antiproliferative activity against human KB cells assessed as cell growth inhibition by MTT assay; type: functional, cell-based
DU-145 [21] = assay: Growth inhibition of human DU-145 cells; type: functional
[22] = Cytotoxicity against human HEK293 cells assessed as cell growth inhibition; type: toxicity, cell-based
Neisseria gonorrhoeae [23] = assay: Antimicrobial activity against Neisseria gonorrhoeae assessed as reduction in microbial growth by disk diffusion assay; type: functional
Malme-3M = assay: Growth inhibition of human Malme-3M cells; type: functional
Bacillus subtilis = assay: Antimicrobial activity against Bacillus subtilis assessed as reduction in microbial growth by disk diffusion assay; type: functional
Neisseria gonorrhoeae [24] = assay: Antimicrobial activity against Penicillin resistant Neisseria gonorrhoeae assessed as reduction in microbial growth by disk diffusion assay; type: functional
Streptococcus pneumoniae [25] = assay: Antimicrobial activity against Penicillin resistant Streptococcus pneumoniae assessed as reduction in microbial growth by disk diffusion assay; type: functional
Streptococcus pneumoniae [26] = assay: Antimicrobial activity against Streptococcus pneumoniae assessed as reduction in microbial growth by disk diffusion assay; type: functional
MDA-MB-435 = assay: Antiproliferative activity against human MDA-MB-435 cells assessed as cell growth inhibition by MTT colorimetric assay; type: functional, cell-based
HCT-116 [27] = assay: Antiproliferative activity against human HCT-116 cells assessed as cell growth inhibition by MTT colorimetric assay; type: functional, cell-based
MCF7 [28] = assay: Cytotoxicity against human MCF7 cells assessed as cell growth inhibition incubated for 72 hrs by MTT assay; type: functional, cell-based; conditions: MCF7, 72 h
[29] = Cytotoxicity against human U373 MG cells assessed as cell growth inhibition incubated for 4 to 72 hrs by MTT assay; type: functional, cell-based, U-373MG ATCC
ASPC1 = assay: Cytotoxicity against human ASPC1 cells assessed as cell growth inhibition; type: functional, cell-based
T47D = assay: Cytotoxicity against human T47D cells assessed as cell growth inhibition; type: functional, cell-based

`COC1=C(C)C(=O)C2=C(C1=O)[C@@H]1[C@@H]3CC4=C(C(=O)C(OC)=C(C)C4=O)[C@H](COC(=O)C(=O)CNC(=O)c4ccccc4)N3[C@@H](C#N)[C@H](C2)N1C` gave an IC50 (Bel-7402) of 2.12 nM, an IC50 (MCF7 [1]) of 2.12 nM and an IC50 (BGC-823 [2]) of 2.12 nM. For the same molecule, the IC50 (A2780) was 2.12 nM, the IC50 (KB [3]) was 2.12 nM and the IC50 (A549 [4]) was 2.12 nM. It also gave an IC50 [5] of 2.12 nM, an IC50 (KETR3) of 2.12 nM and an IC50 (HCT-8 [6]) of 2.12 nM. The IC50 (HeLa [7]) was 2.12 nM.
`C/C=C(/C)C(=O)OC[C@H]1C2=C(C[C@H]3[C@H]4c5c(O)c(OC)c(C)c(O)c5[C@@H](O)[C@@H]([C@H](C#N)N13)N4C)C(=O)C(C)=C(OC)C2=O` gave an IC50 (HCT-116 [8]) of 5.6 nM, an IC50 (DLD-1) of 5.7 nM and an IC50 (NCI-H460) of 6.7 nM. It also gave an IC50 (QG-56 [9]) of 11 nM.
In the case of `COC1=C(C)C(=O)C2=C(C1=O)[C@H]1CN(C)[C@@H](C#N)[C@H](C2)N1C`, the IC50 (HCT-116 [8]) is reported as 84 nM and the IC50 (QG-56 [9]) is reported as 240 nM.
For `COC1=C(C)C(=O)C2=C(C1=O)[C@@H]1[C@@H]3CC4=C(C(=O)C(OC)=C(C)C4=O)[C@H](COC(C)=O)N3[C@@H](O)[C@H](C2)N1C`, the IC50 (HT-29) was 0.0125 µg/mL (≈ 0.0237 µM), the IC50 (Melanoma cell line) was 0.0125 µg/mL (≈ 0.0237 µM) and the IC50 (QG-56 [10]) was 0.76 nM. The IC50 (A549 [4]) was 0.0125 µg/mL, the IC50 (DU-145 [11]) was 0.49 nM and the IC50 (P388) was 0.0125 µg/mL (≈ 0.0237 µM). It also gave an IC50 (HCT-116 [12]) of 0.57 nM and an inhibition at 50 ng/ml [13] of 100%.
`C/C=C(/C)C(=O)OC[C@H]1C2=C(C[C@H]3[C@H]4C5=C(C[C@@H](C(=O)N13)N4C)C(=O)C(C)=C(OC)C5=O)C(=O)C(C)=C(OC)C2=O` [(-)-RENIERAMYCIN G] gave an IC50 (HeLa [14]) of 3800 nM, a GI50 (HCT-116 [15]) of 1100 nM and an IC50 (BGC-823 [16]) of 3500 nM. It also gave an IC50 (A549 [17]) of 3500 nM, an IC50 (HCT-8 [18]) of 3500 nM and a GI50 (QG-56 [19]) of 1300 nM. For the same molecule, the IC50 (KB [20]) was 3500 nM and the GI50 (DU-145 [21]) was 1300 nM.
`CC(C)C[C@H](NC(=O)[C@H](Cc1ccccc1)NC(=O)c1cnccn1)B(O)O` [BORTEZOMIB] gave an IC50 [22] of 14000 nM.
`C/C=C(/C)C(=O)OC[C@H]1C2=C(C=C3[C@H]4c5c(O)c(OC)c(C)c(O)c5C(=O)[C@@H](C(=O)N31)N4C)C(=O)C(C)=C(OC)C2=O` [CRIBROSTATIN 5] gave an MIC (Neisseria gonorrhoeae [23]) of 6.25 µg, a GI50 (Malme-3M) of 390 nM and an MIC (Bacillus subtilis) of 12.5 µg. For the same molecule, the MIC (Neisseria gonorrhoeae [24]) was 1.56 µg, the MIC (Streptococcus pneumoniae [25]) was 50 µg and the MIC (Streptococcus pneumoniae [26]) was 6.25 µg.
Molecule `COC1=C(C)C(=O)C2=C(C1=O)[C@@H]1[C@@H]3CC4=C(C(=O)C(OC)=C(C)C4=O)[C@H](COC(C)=O)N3[C@@H](C#N)[C@H](C2)N1C` [CYANOJORUMYCIN] has an IC50 (HCT-116 [8]) of under 0.38 nM and an IC50 (QG-56 [9]) of 0.68 nM.
With `COc1cccc2c1C(=O)c1c(O)c3c(c(O)c1C2=O)C[C@@](O)(C(=O)CO)C[C@@H]3O[C@H]1C[C@H](N)[C@H](O)[C@H](C)O1` [DOXORUBICIN HYDROCHLORIDE] the IC50 (A549 [4]) was 310 nM.
`CCC(=O)OC[C@H]1C2=C(C[C@H]3[C@H]4C5=C(C[C@@H]([C@H](C#N)N13)N4C)C(=O)C(C)=C(OC)C5=O)C(=O)C(C)=C(OC)C2=O` [JORUNNAMYCIN C] gave an IC50 (MDA-MB-435) of 16.3 nM, an IC50 (HCT-116 [27]) of 27.3 nM and an IC50 (QG-56 [10]) of 2.8 nM. For the same molecule, the IC50 (DU-145 [11]) was 0.32 nM and the IC50 (HCT-116 [12]) was 1.5 nM.
Work on `C/C=C(/C)C(=O)OC[C@H]1C2=C(C[C@H]3[C@H]4C5=C(C[C@@H]([C@H](C#N)N13)N4C)C(=O)C(C)=C(OC)C5=O)C(=O)C(C)=C(OC)C2=O` [RENIERAMYCIN M] yielded an IC50 (MCF7 [28]) of 6 nM, an IC50 (MDA-MB-435) of 6.3 nM and an IC50 [29] of 3.1 nM. It also gave an IC50 (HCT-116 [27]) of 16.4 nM, an IC50 (QG-56 [10]) of 11 nM and an IC50 (ASPC1) of 20 nM. The IC50 (T47D) was 0.84 nM and the GI50 (DU-145 [21]) was 1700 nM.

— ChEMBL document CHEMBL5126503, “Renieramycin-type alkaloids from marine-derived organisms: Synthetic chemistry, biological activity and structural modification” (Eur J Med Chem, 2021)
